The results in this text go back to ChEMBL document CHEMBL5725908, “Tricyclic DLK inhibitors and uses thereof” (2018).

The experiment deals with T1, Mitogen-activated protein kinase kinase kinase 12 (Homo sapiens, UniProt Q12852).
T1 sequence (Q12852 whole entry): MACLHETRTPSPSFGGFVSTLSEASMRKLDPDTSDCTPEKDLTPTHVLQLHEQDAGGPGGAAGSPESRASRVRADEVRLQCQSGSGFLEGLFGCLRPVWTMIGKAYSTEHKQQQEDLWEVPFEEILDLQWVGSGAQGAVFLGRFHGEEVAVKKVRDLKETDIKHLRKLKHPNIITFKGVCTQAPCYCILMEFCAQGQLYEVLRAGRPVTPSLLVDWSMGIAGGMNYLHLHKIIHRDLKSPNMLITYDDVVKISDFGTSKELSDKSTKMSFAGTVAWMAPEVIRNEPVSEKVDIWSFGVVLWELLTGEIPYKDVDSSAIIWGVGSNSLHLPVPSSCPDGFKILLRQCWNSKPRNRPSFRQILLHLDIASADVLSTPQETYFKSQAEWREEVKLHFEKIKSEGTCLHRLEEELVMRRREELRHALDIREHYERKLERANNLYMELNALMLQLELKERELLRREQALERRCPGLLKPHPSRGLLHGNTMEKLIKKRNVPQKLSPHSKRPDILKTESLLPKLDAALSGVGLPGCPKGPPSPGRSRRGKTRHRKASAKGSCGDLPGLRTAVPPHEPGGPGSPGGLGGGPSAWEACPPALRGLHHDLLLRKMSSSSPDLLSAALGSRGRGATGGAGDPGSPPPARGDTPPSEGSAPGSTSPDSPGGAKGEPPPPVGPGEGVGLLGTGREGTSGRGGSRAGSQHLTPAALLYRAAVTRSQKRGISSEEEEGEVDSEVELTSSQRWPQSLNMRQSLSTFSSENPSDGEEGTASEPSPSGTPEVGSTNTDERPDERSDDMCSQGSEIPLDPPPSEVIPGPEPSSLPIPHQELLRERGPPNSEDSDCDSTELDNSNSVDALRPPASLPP
In words: DLK TR-FRET Inhibition Assay: DLK kinase reactions (20 μL) containing 5 nM N-terminally GST-tagged DLK (catalytic domain amino acid 1-520) (Carna Bioscience), 40 nM N-terminally HIS tagged MKK4 K131M substrate, and 30 μM ATP in kinase reaction buffer (50 mM HEPES, pH 7.5, 0.01% Triton X-100, 0.01% Bovine γ-Globulins, 2 mM DTT, 10 mM MgCl2 and 1 mM EGTA), and testing compound 1:3 serial diluted starting at 20 uM were incubated at ambient temperature for 60 minutes in 384 well OptiPlate (Perkin Elmer). To quench kinase reactions and detect phosphorylated MKK4, 15 μL of TR-FRET antibody mixture containing 2 nM anti-phosphorylated MKK4 labeled with Europium cryptate (Cisbio) and 23 nM anti-HIS labeled with D2 (Cisbio) in detection buffer (25 mM Tris pH 7.5, 100 mM NaCl, 100 mM EDTA, 0.01% Tween-20, and 200 mM KF) was added to the reaction mixture. The detection mixture was incubated for 3 hours at ambient temperature and the TR-FRET was detected with an EnVision multilabel plate reader (Perkin-Elmer) using the LANCE/DELFIA Dual Enh label from Perkin-Elmer (excitation filter: UV2 (TRF) 320 and emission filters: APC 665 and Europium 615). (In TR-FRET formats the signal depends on donor and acceptor labels being close together.)

For orientation: Ki means a dissociation constant, usually derived from enzyme kinetics or from competition with a known ligand. `COC1C2CCC1N(c1nc(-c3cnc(N)nc3)nc3c1nc1n3CCOC1(C)C)C2` (centres undefined): the Ki came out at 223 nM.

For the compound `Cc1c[nH]c2ncc(-c3nc(N4CC5COCC5C4)c4nc5n(c4n3)CCOC5(C)C)cc12` (centres undefined), the Ki worked out at 46.3 nM.

Take `CC1(C)OCCn2c1nc1c(N3CC4COCC4C3)nc(-c3cnc(N)nc3)nc12` (centres undefined): the Ki was found to be 995 nM.

For `CC(C)n1nccc1-c1nc(-c2cnc(N)nc2)nc2c1nc1n2CCOC1(C)C`, the Ki turned out to be 1400 nM.
